For data set [1], the target named is T1, rat CB2 (Rattus norvegicus, UniProt Q9QZN9).
T1 sequence (Q9QZN9 1-360): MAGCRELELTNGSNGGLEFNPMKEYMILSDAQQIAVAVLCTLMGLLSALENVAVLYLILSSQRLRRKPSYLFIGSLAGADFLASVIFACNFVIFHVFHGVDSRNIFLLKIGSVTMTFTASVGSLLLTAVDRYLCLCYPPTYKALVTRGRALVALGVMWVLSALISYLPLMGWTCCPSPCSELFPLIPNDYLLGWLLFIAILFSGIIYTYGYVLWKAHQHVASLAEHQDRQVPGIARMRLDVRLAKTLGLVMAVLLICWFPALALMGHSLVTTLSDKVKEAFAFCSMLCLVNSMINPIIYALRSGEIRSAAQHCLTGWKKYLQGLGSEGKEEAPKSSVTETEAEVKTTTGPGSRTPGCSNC
Kind of data set: rat CB2 radioligand binding assay ([3H]CP 55,940 competition). The conditions noted are these: rat CB2 (Ki, nM), HEK293 membranes, 0.5 nM [3H]CP 55,940. Details: expressed in transfected cells; host or cells: HEK293. The procedure, abridged: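 Membranes (20 μg protein/well) from HEK293 cells stably expressing the receptor were incubated 45 min at 30 °C with 0.5 nM [3H]CP 55,940 and five concentrations of test compound (0.01 nM–10 μM) in Tris/EDTA/MgCl2/BSA buffer, pH 7.4. Bound ligand was measured by GF/C filtration and scintillation counting; 10 μM CP 55,940 defined nonspecific binding.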

For data set [2], the target named is T1, rat CB2. Description: rat CB2 cyclase functional assay (HitHunter cAMP). The format is cell-based. The conditions noted are these: rat CB2 cyclase (EC50, nM), HEK cells, forskolin 18 μM. Details: expressed in transfected cells; host or cells: HEK. As to the method: (§1) The cyclase functional assays were performed using the HitHunter™ cAMP assay kit from DiscoveRx (Fremont, Calif.) according to vendor's protocol. Briefly, HEK cells expressing CB2 or CB1 receptors (rat or human) were detached using cell dissociation buffer (Invitrogen, Carlsbad, Calif.), dispersed and placed in suspension at 10,000 cells per well in 96 well plates prior to the assay. Cell suspensions were incubated at 37° C. for 20 min with variable concentrations of test ligands and or 10 μM CP 55,940-positive control in the presence of a fixed concentration of forskolin (18 μM for rat CB2 and 37 μM for rat CB1) in Dulbescco's phosphate-buffered saline (Invitrogen, Carlsbad, Calif.) supplemented with bovine serum albumin (0.01% final concentration). The reactions were terminated by the addition of lysis buffer and the luminescence was detected following the procedure according to the manufacturer's instructions. EC50 values were calculated using sigmoidal dose-response curve fitting from Prism (GraphPad).

The target in data set [3] is T2, Rat CB1 (Rattus norvegicus, UniProt P20272).
T2 construct: expressed in transfected cells; host or cells: HEK
T2 sequence (P20272 whole entry): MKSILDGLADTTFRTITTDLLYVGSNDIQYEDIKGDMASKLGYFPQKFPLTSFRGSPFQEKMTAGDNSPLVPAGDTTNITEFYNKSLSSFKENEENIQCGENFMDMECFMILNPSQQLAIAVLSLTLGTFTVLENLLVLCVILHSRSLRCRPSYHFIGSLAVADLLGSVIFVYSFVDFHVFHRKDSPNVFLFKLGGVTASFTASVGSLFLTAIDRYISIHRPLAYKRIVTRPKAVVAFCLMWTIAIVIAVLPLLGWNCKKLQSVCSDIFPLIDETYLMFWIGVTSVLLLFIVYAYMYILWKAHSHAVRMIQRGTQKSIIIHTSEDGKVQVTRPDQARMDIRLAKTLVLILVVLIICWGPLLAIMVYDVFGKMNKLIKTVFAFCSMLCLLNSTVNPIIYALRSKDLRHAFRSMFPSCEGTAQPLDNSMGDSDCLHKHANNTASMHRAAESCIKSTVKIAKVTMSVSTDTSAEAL
Description: rat CB1 cyclase functional assay (HitHunter cAMP). Type of data set: cell-based. To be noted: HEK cells, forskolin 37 μM. On the procedure:
as §1

For data set [4], the target named is T3, human CB2 receptors (Homo sapiens, UniProt P34972).
T3 construct: expressed in transfected cells; host or cells: HEK293
T3 sequence (P34972 whole entry): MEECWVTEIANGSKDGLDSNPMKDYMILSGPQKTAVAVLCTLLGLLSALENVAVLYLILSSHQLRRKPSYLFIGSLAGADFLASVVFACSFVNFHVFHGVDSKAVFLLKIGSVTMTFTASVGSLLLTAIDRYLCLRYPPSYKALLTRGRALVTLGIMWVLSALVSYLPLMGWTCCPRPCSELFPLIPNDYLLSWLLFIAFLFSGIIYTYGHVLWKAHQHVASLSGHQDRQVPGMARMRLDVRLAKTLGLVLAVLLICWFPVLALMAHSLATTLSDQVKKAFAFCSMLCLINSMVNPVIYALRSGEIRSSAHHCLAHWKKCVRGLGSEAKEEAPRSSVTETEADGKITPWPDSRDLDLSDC
Description: human CB2 radioligand binding assay ([3H]CP 55,940 competition). The conditions noted are these: human CB2 (Ki, nM), HEK293 membranes, 0.5 nM [3H]CP 55,940. The procedure, abridged:
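Membranes from HEK293 cells stably expressing human CB2 (5 μg protein/well) competed against 0.5 nM [3H]CP 55,940 with five concentrations of test ligand (0.01 nM to 10 μM), pH 7.4 Tris buffer with BSA, 90 min at 30 °C. Filtration and scintillation counting; nonspecific binding with 10 μM unlabeled CP 55,940.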

Data set [5] is described as follows: pharmacokinetic studies in rats. To be noted: male, Sprague-Dawley, rat; for half-life: in vivo, 3 micromole/kg; for half-life / clearance: iv; for bioavailability: po. As to the method:
Male Sprague-Dawley rats, weighing 250-400 g, were obtained from Charles Rivers Laboratories. Pharmacokinetic studies were conducted in three groups of rats; each group contained three animals. All groups were dosed with a solution formulation. The first group of three rats received an intravenous dose, administered under isoflurane anesthetic. The second group received an intraperitoneal dose and the third group received an oral dose, administered by gavage. Sequential blood samples were obtained from a tail vein of each animal for 8-24 hours after dosing. Plasma was separated by centrifugation and stored frozen until analysis.
Half life […] and plasma clearance values are based on intravenous administration (3 micromole/kg).
Half life (t1/2) and plasma clearance values are based on intravenous administration (3 micromole/kg).

[6] abbreviates: read-out: Rat CB1 cyclase (EC50).

Several values for one entry are separate records, joined by “and”; a condition that tells them apart may be missing. Equal values may be shown once. Read-outs that look alike come from different tables or passages of the source.

Consider 13 compounds from patent US8188135B2, “Compounds as cannabinoid receptor ligands” (priority 2008, dated 2012).

Regarding `Cn1c(C(C)(C)C)c/c(=N\C(=O)c2cc(C(F)(F)F)ccc2OC[C@@H]2CCN2)n1C[C@H]1CCCO1` [Example 2, 2-[(2S)-azetidin-2-ylmethoxy]-N-{(3E)-5-tert-butyl-1-methyl-2-[(2R)-tetrahydrofuran-2-ylmethyl]-1,2-dihydro-3H-pyrazol-3-ylidene}-5-(trifluoromethyl)benzamide], the Ki (in general, the equilibrium dissociation constant of an inhibitor or competing ligand from its target) is 195 nM in data set [1] and greater than 1000 nM in data set [4]. For the same compound, the EC50 (in general, the concentration that produces a half-maximal response) in data set [2] was found to be 0.77 nM; in data set [3] (Rat CB1 cyclase (EC50, nM)) it was 11200 nM.
Consider `Cn1c(C(C)(C)C)c/c(=N\C(=O)c2cc(C(F)(F)F)ccc2NC[C@H]2CCCO2)n1C[C@H]1CCCO1` [Example 23, N-{(3E)-5-tert-butyl-1-methyl-2-[(2R)-tetrahydrofuran-2-ylmethyl]-1,2-dihydro-3H-pyrazol-3-ylidene}-2-{[(2R)-tetrahydrofuran-2-ylmethyl]amino}-5-(trifluoromethyl)benzamide], for which the values for the Ki in data set [1] and in data set [4] were 2.8 nM and 4.7 nM, respectively. Moreover, the EC50 in data set [2] stood at 0.37 nM; in data set [3] (Rat CB1 cyclase (EC50, nM)), 3420 nM.
Consider `Cn1c(C(C)(C)C)c/c(=N\C(=O)c2cc(C(F)(F)F)ccc2OC[C@H]2COC(C)(C)O2)n1C[C@H]1CCCO1` [Example 18, N-{(3E)-5-tert-butyl-1-methyl-2-[(2R)-tetrahydrofuran-2-ylmethyl]-1,2-dihydro-3H-pyrazol-3-ylidene}-2-{[(4S)-2,2-dimethyl-1,3-dioxolan-4-yl]methoxy}-5-(trifluoromethyl)benzamide], for which the Ki turned out to be 22 nM in data set [1] and 37 nM in data set [4]. In addition, the EC50 in data set [2] was 1.8 nM; in data set [3] (Rat CB1 cyclase (EC50, nM)) it was greater than 27000 nM.
In the same order, the values of `CC(=O)NCCOc1ccc(C(F)(F)F)cc1C(=O)/N=c1\cc(C(C)(C)C)n(C)n1C[C@H]1CCCO1` [Example 78, 2-[2-(acetylamino)ethoxy]-N-{(3E)-5-tert-butyl-1-methyl-2-[(2R)-tetrahydrofuran-2-ylmethyl]-1,2-dihydro-3H-pyrazol-3-ylidene}-5-(trifluoromethyl)benzamide] are 18 nM, 15 nM, 1.9 nM and 8880 nM.
In the same order, the values of `Cn1c(C(C)(C)C)c/c(=N\C(=O)c2cc(C(F)(F)F)cc(Cl)c2OC[C@@H]2CCCO2)n1C[C@H]1CCCO1` [Example 28, N-{(3E)-5-tert-butyl-1-methyl-2-[(2R)-tetrahydrofuran-2-ylmethyl]-1,2-dihydro-3H-pyrazol-3-ylidene}-3-chloro-2-[(2S)-tetrahydrofuran-2-ylmethoxy]-5-(trifluoromethyl)benzamide] are 15 nM, 44 nM, 0.91 nM and 8090 nM.
The corresponding values for `Cn1c(C(C)(C)C)c/c(=N\C(=O)c2cc(C(F)(F)F)ccc2OC[C@@H]2CCCN2)n1C[C@H]1CCCO1` [Example 62, N-{(3E)-5-tert-butyl-1-methyl-2-[(2R)-tetrahydrofuran-2-ylmethyl]-1,2-dihydro-3 H-pyrazol-3-ylidene}-2-[(2S)-pyrrolidin-2-ylmethoxy]-5-(trifluoromethyl)benzamide] are 21 nM, 82 nM, 0.28 nM and greater than 27000 nM.
As for `Cn1c(C(C)(C)C)c/c(=N\C(=O)c2cc(C(F)(F)F)ccc2OC[C@@H]2CCCO2)n1Cc1ccc(F)cc1` [Example 30, N-[(3E)-5-tert-butyl-2-(4-fluorobenzyl)-1-methyl-1,2-dihydro-3H-pyrazol-3-ylidene]-2-[(2S)-tetrahydrofuran-2-ylmethoxy]-5-(trifluoromethyl)benzamide], the Ki in data set [1] was 23 nM; in data set [4], 28 nM. In addition, the EC50 is 2.5 nM in data set [2] and greater than 27000 nM in data set [3] (Rat CB1 cyclase (EC50, nM)).
The corresponding values for `Cn1c(C(C)(C)C)c/c(=N\C(=O)c2cc(C(F)(F)F)ccc2OCCNS(=O)(=O)C2CC2)n1C[C@H]1CCCO1` [Example 49, N-{(3E)-5-tert-butyl-1-methyl-2-[(2R)-tetrahydrofuran-2-ylmethyl]-1,2-dihydro-3H-pyrazol-3-ylidene}-2-{2-[(cyclopropylsulfonyl)amino]ethoxy}-5-(trifluoromethyl)benzamide] are 2.7 nM, 13 nM, 0.12 nM and 4190 nM.
In the same order, the values of `CN1CCC[C@H]1COc1ccc(C(F)(F)F)cc1C(=O)/N=C1\SC(C)(C)CN1C[C@H]1CCCO1` [Example 33, N-{(2Z)-5,5-dimethyl-3-[(2R)-tetrahydrofuran-2-ylmethyl]-1,3-thiazolidin-2-ylidene}-2-{[(2S)-1-methylpyrrolidin-2-yl]methoxy}-5-(trifluoromethyl)benzamide] are 20 nM, 23 nM, 0.09 nM and 5380 nM.
In the case of `CCCCCn1/c(=N/C(=O)c2cc(C#N)ccc2OCC(C)(C)O)cc(C(C)(C)C)n1C` [Example 115, N-[(3E)-5-tert-butyl-1-methyl-2-pentyl-1,2-dihydro-3H-pyrazol-3-ylidene]-5-cyano-2-(2-hydroxy-2-methylpropoxy)benzamide], the Ki in data set [1] was 17 nM. Also, in data set [5], the half-life – broadly, how long it takes for the measured level to halve – was 0.6 h; the clearance (as a rule, the rate of elimination divided by the concentration) was 30 mL/min/kg; the bioavailability (commonly dose-corrected exposure relative to a reference, in per cent) worked out at 7%. In addition, the EC50 in data set [3] (setting [6]) was greater than 27000 nM. Besides, in data set [4], the Ki was determined as 81 nM.
Turning to `C[C@@H](O)COc1ccc(C(F)(F)F)cc1C(=O)/N=c1\cc(C(C)(C)C)n(C)n1C[C@H]1CCCO1` [Example 91, N-{(3E)-5-tert-butyl-1-methyl-2-[(2R)-tetrahydrofuran-2-ylmethyl]-1,2-dihydro-3 H-pyrazol-3-ylidene}-2-{[(2R)-2-hydroxypropyl]oxy}-5-(trifluoromethyl)benzamide], the Ki in data set [1] worked out at 18 nM. In data set [5], the half-life is 2.5 h, the clearance was 31.7 mL/min/kg and the bioavailability worked out at 33%. Besides, the EC50 in data set [3] (setting [6]) is greater than 27000 nM. This compound also yielded a Ki in data set [4] of 38 nM.
Turning to `Cn1c(C(C)(C)C)c/c(=N\C(=O)c2cc(C#N)ccc2OCC(C)(C)O)n1CC1CCC1` [Example 113, N-[(3E)-5-tert-butyl-2-(cyclobutylmethyl)-1-methyl-1,2-dihydro-3H-pyrazol-3-ylidene]-5-cyano-2-(2-hydroxy-2-methylpropoxy)benzamide], the Ki in data set [1] was found to be 28 nM. In data set [5], this compound had a half-life of 3.4 h, a clearance of 20 mL/min/kg and a bioavailability of 100%. Besides, the EC50 in data set [3] (setting [6]) was greater than 27000 nM. The compound further displayed a Ki in data set [4] of 54 nM.
As for `CN1CCC[C@H]1COc1ccc(C(F)(F)F)cc1C(=O)/N=c1\sc(C(C)(C)C)nn1C[C@H]1CCCO1` [Example 69, N-[(2Z)-5-tert-butyl-3-[(2R)-tetrahydrofuran-2-ylmethyl]-1,3,4-thiadiazol-2(3 H)-ylidene]-2-{[(2S)-1-methylpyrrolidin-2-yl]methoxy}-5-(trifluoromethyl)benzamide], the Ki in data set [1] is 19 nM and 5 nM; in data set [4], 10 nM and 14 nM. The EC50 in data set [2] was 0.93 nM and 0.16 nM.
